Patent US8293891B2, “4 (pyrrolopyridinyl)pyrimidin-2-ylamine derivatives” (Merck Patent Gesellschaft mit Beschrankter Haftung, priority 2007, dated 2012)

Legend:
Type in all cases: cell-based
Colo205 (intestine) = test: Inhibition of the proliferation/vitality of tumour cells (Alamar Blue), Colo205; conditions: Homo sapiens, COLO 205, 96 h, 4 days cultivation
Protocol: (§1) The cells are sown in a suitable cell density in microtitre plates (96-well format) and the test substances are added in the form of a concentration series. After four further days of cultivation in serum-containing medium, the tumour cell proliferation/tumour cell vitality can be determined by means of an Alamar Blue test system.
(§2) The cells are cultivated in medium. At intervals of several days, the cells are detached from the culture dishes with the aid of trypsin solution and sown in suitable dilution in fresh medium. The cells are cultivated at 37° Celsius and 10% CO2. […]
(§3) In each case, 20 μl of Alamar Blue reagent are added per well, and the microtitre plates are incubated, for example, for a further seven hours in a CO2 incubator (at 37° C. and 10% CO2). The plates are measured in a reader with a fluorescence filter at a wavelength of 540 nm. […]
(§4) The absorbance value of the medium control (no cells and test substances used) is subtracted from all other absorbance values. The controls (cells without test substance) are set equal to 100 per cent, and all other absorbance values are set in relation thereto (for example in % of control):
(§5) IC50 values (50% inhibition) are determined with the aid of statistics programs, such as, for example, RS1.

A2780 (ovary) = test: Inhibition of the proliferation/vitality of tumour cells (Alamar Blue), A2780; conditions: Homo sapiens, 96 h, 4 days cultivation
Protocol: as §1
The cells are cultivated in medium. At intervals of several days, the cells are detached from the culture dishes with the aid of trypsin solution and sown in suitable dilution in fresh medium. The cells are cultivated at 37° Celsius and 10% CO2.
A defined number of cells (for example 2000 cells) per culture/well in a volume of 180 μl of culture medium are sown in microtitre plates (96 well cell-culture plates) using a multichannel pipette. The cells are subsequently cultivated in a CO2 incubator (37° C. and 10% CO2).
The test substances are dissolved, for example, in DMSO and subsequently employed in corresponding concentration (if desired in a dilution series) in the cell culture medium. The dilution steps can be adapted depending on the efficiency of the active ingredients and the desired spread of the concentrations. Cell culture medium is added to the test substances in corresponding concentrations. The addition of the test substances to the cells can take place on the same day as the sowing of the cells. To this end, in each case 20 μl of substance solution from the predilution plate are added to the cultures/wells. The cells are cultivated for a further 4 days at 37° Celsius and 10% CO2.
In each case, 20 μl of Alamar Blue reagent are added per well, and the microtitre plates are incubated, for example, for a further seven hours in a CO2 incubator (at 37° C. and 10% CO2). The plates are measured in a reader with a fluorescence filter at a wavelength of 540 nm. The plates can be shaken gently immediately before the measurement.
as §4, §5

PC3 (prostate) = test: Inhibition of the proliferation/vitality of tumour cells (Alamar Blue), PC3; conditions: Prostate cell, 96 h, 4 days cultivation
Protocol: as §1, §2, §3, §4, §5

MCF7 (breast) = test: Inhibition of the proliferation/vitality of tumour cells (Alamar Blue), MCF7; conditions: Homo sapiens, 96 h, 4 days cultivation
Protocol: as §1, §2, §3, §4, §5

Compound | IC50 (Colo205 (intestine)) | IC50 (A2780 (ovary)) | IC50 (PC3 (prostate)) | IC50 (MCF7 (breast))
c1ccc(Nc2nccc(-c3c[nH]c4ccncc34)n2)cc1 [Compound A1, phenyl[4-(1H-pyrrolo[3,2-c]pyridin-3-yl)pyrimidin-2-yl]-amine] | 10 to 1000 nM | 10 to 1000 nM | 10 to 1000 nM | 10 to 1000 nM
Cc1ccccc1Nc1nccc(-c2c[nH]c3ccncc23)n1 [Compound A6, [4-(1H-pyrrolo-[3,2-c]pyridin-3-yl)pyrimidin-2-yl]-o-tolyl-amine] | – | 1000 to 10000 nM | – | –
Fc1cccc(Nc2nccc(-c3c[nH]c4ccncc34)n2)c1 [Compound A7] | – | 10 to 1000 nM | – | –
COc1ccc(Nc2nccc(-c3c[nH]c4ccncc34)n2)cc1 [Compound A8] | – | 1000 to 10000 nM | – | –
